In PubChem BioAssay (NCI):
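Abbreviation: GI50, concentration required for 50% inhibition of growth. At the TGI there is no net growth.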

Assays:
Test in all cases: NCI-60 cell line screen, 384-well format
ACHN renal = tested on: ACHN renal
NCI-H322M lung = tested on: NCI-H322M lung
RPMI-8226 leukemia = tested on: RPMI-8226 leukemia
EKVX NSCLC = tested on: EKVX NSCLC
M14 melanoma = tested on: M14 melanoma
MDA-MB-435 melanoma = tested on: MDA-MB-435 melanoma
IGROV1 ovarian = tested on: IGROV1 ovarian
HL-60(TB) leukemia = tested on: HL-60(TB) leukemia
MDA-MB-231 breast = tested on: MDA-MB-231 breast
A498 renal = tested on: A498 renal
HCT-116 colon = tested on: HCT-116 colon
UACC-257 melanoma = tested on: UACC-257 melanoma
MOLT-4 leukemia = tested on: MOLT-4 leukemia
SK-OV-3 ovarian = tested on: SK-OV-3 ovarian
COLO 205 colon = tested on: COLO 205 colon
TK-10 renal = tested on: TK-10 renal
SK-MEL-28 melanoma = tested on: SK-MEL-28 melanoma
SF-539 CNS = tested on: SF-539 CNS
OVCAR-3 ovarian = tested on: OVCAR-3 ovarian
U251 glioblastoma = tested on: U251 glioblastoma
SNB-19 CNS = tested on: SNB-19 CNS
HS 578T breast = tested on: HS 578T breast
DU-145 prostate = tested on: DU-145 prostate
NCI/ADR-RES ovarian = tested on: NCI/ADR-RES ovarian
OVCAR-8 ovarian = tested on: OVCAR-8 ovarian
RXF 393 renal = tested on: RXF 393 renal
SR leukemia = tested on: SR leukemia
SF-268 CNS = tested on: SF-268 CNS
A549 NSCLC = tested on: A549 NSCLC
HOP-92 NSCLC = tested on: HOP-92 NSCLC
OVCAR-4 ovarian = tested on: OVCAR-4 ovarian
SK-MEL-5 melanoma = tested on: SK-MEL-5 melanoma
OVCAR-5 ovarian = tested on: OVCAR-5 ovarian
HOP-62 NSCLC = tested on: HOP-62 NSCLC
UACC-62 melanoma = tested on: UACC-62 melanoma
MCF7 breast = tested on: MCF7 breast
SF-295 CNS = tested on: SF-295 CNS
PC-3 prostate = tested on: PC-3 prostate
HT29 colon = tested on: HT29 colon
NCI-H522 lung = tested on: NCI-H522 lung
KM12 colon = tested on: KM12 colon
HCT-15 colon = tested on: HCT-15 colon
NCI-H23 lung = tested on: NCI-H23 lung
LOX IMVI melanoma = tested on: LOX IMVI melanoma
SN12C renal = tested on: SN12C renal
SNB-75 CNS = tested on: SNB-75 CNS
BT-549 breast = tested on: BT-549 breast
HCC-2998 colon = tested on: HCC-2998 colon
T-47D breast = tested on: T-47D breast
CAKI-1 renal = tested on: CAKI-1 renal
NCI-H226 lung = tested on: NCI-H226 lung
MALME-3M melanoma = tested on: MALME-3M melanoma
NCI-H460 NSCLC = tested on: NCI-H460 NSCLC
MDA-MB-468 breast = tested on: MDA-MB-468 breast

FC(F)(F)c1cc(-c2ncn(/C=C\c3nnco3)n2)cc(C(F)(F)F)c1
GI50 (ACHN renal): 67.3 nM | TGI (ACHN renal): 8.77 µM | GI50 (NCI-H322M lung): 50.6 nM | TGI (NCI-H322M lung): 2580 nM | GI50 (RPMI-8226 leukemia): < 10 nM | TGI (RPMI-8226 leukemia): < 10 nM | GI50 (EKVX NSCLC): 184 nM | TGI (EKVX NSCLC): 9.92 µM | GI50 (M14 melanoma): 108 nM | TGI (M14 melanoma): 348 nM | GI50 (MDA-MB-435 melanoma): 20.7 nM | TGI (MDA-MB-435 melanoma): 82.5 nM | GI50 (IGROV1 ovarian): 104 nM | TGI (IGROV1 ovarian): 2890 nM | GI50 (HL-60(TB) leukemia): < 10 nM | TGI (HL-60(TB) leukemia): 54.4 nM | GI50 (MDA-MB-231 breast): < 10 nM | TGI (MDA-MB-231 breast): 142 nM | GI50 (A498 renal): < 10 nM | TGI (A498 renal): 82.2 nM | GI50 (HCT-116 colon): < 10 nM | TGI (HCT-116 colon): 350 nM | GI50 (UACC-257 melanoma): 239 nM | TGI (UACC-257 melanoma): 2470 nM | GI50 (MOLT-4 leukemia): < 10 nM | TGI (MOLT-4 leukemia): < 10 nM | GI50 (SK-OV-3 ovarian): < 10 nM | TGI (SK-OV-3 ovarian): 12.5 µM | GI50 (COLO 205 colon): < 10 nM | TGI (COLO 205 colon): 1980 nM | GI50 (TK-10 renal): 16.4 nM | TGI (TK-10 renal): 143 nM | GI50 (SK-MEL-28 melanoma): 33.8 nM | TGI (SK-MEL-28 melanoma): 386 nM | GI50 (SF-539 CNS): < 10 nM | TGI (SF-539 CNS): 11.2 nM | GI50 (OVCAR-3 ovarian): < 10 nM | TGI (OVCAR-3 ovarian): 96.6 nM | GI50 (U251 glioblastoma): 19.5 nM | TGI (U251 glioblastoma): 190 nM | GI50 (SNB-19 CNS): 58.3 nM | TGI (SNB-19 CNS): 1130 nM | GI50 (HS 578T breast): < 10 nM | TGI (HS 578T breast): 878 nM | GI50 (DU-145 prostate): 119 nM | TGI (DU-145 prostate): 514 nM | GI50 (NCI/ADR-RES ovarian): < 10 nM | TGI (NCI/ADR-RES ovarian): 1330 nM | GI50 (OVCAR-8 ovarian): < 10 nM | TGI (OVCAR-8 ovarian): 1210 nM | GI50 (RXF 393 renal): < 10 nM | TGI (RXF 393 renal): 706 nM | GI50 (SR leukemia): < 10 nM | TGI (SR leukemia): < 10 nM | GI50 (SF-268 CNS): < 10 nM | TGI (SF-268 CNS): 558 nM | GI50 (A549 NSCLC): 10.1 nM | TGI (A549 NSCLC): 11.3 µM | GI50 (HOP-92 NSCLC): 130 nM | TGI (HOP-92 NSCLC): 11 µM | GI50 (OVCAR-4 ovarian): 179 nM | TGI (OVCAR-4 ovarian): 662 nM | GI50 (SK-MEL-5 melanoma): 73.6 nM | TGI (SK-MEL-5 melanoma): 252 nM | GI50 (OVCAR-5 ovarian): 64.2 nM | TGI (OVCAR-5 ovarian): 588 nM | GI50 (HOP-62 NSCLC): 31.8 nM | TGI (HOP-62 NSCLC): 231 nM | GI50 (UACC-62 melanoma): 12.5 nM | TGI (UACC-62 melanoma): 242 nM | GI50 (MCF7 breast): 19.1 nM | TGI (MCF7 breast): > 100 µM | GI50 (SF-295 CNS): 16.9 nM | TGI (SF-295 CNS): 2300 nM | GI50 (PC-3 prostate): < 10 nM | TGI (PC-3 prostate): 38.1 nM | GI50 (HT29 colon): < 10 nM | TGI (HT29 colon): 719 nM | GI50 (NCI-H522 lung): < 10 nM | TGI (NCI-H522 lung): 118 nM | GI50 (KM12 colon): 139 nM | TGI (KM12 colon): 3.05 µM | GI50 (HCT-15 colon): 34.4 nM | TGI (HCT-15 colon): 493 nM | GI50 (NCI-H23 lung): < 10 nM | TGI (NCI-H23 lung): 1950 nM | GI50 (LOX IMVI melanoma): 42.3 nM | TGI (LOX IMVI melanoma): 206 nM | GI50 (SN12C renal): 194 nM | TGI (SN12C renal): 1510 nM | GI50 (SNB-75 CNS): < 10 nM | TGI (SNB-75 CNS): 113 nM | GI50 (BT-549 breast): < 10 nM | TGI (BT-549 breast): 23.8 nM | GI50 (HCC-2998 colon): 33.5 nM | TGI (HCC-2998 colon): 334 nM | GI50 (T-47D breast): 190 nM | TGI (T-47D breast): 6.28 µM | GI50 (CAKI-1 renal): < 10 nM | TGI (CAKI-1 renal): 18.9 µM | GI50 (NCI-H226 lung): < 10 nM | TGI (NCI-H226 lung): 17 nM | GI50 (MALME-3M melanoma): 123 nM | TGI (MALME-3M melanoma): 425 nM | GI50 (NCI-H460 NSCLC): < 10 nM | TGI (NCI-H460 NSCLC): 79.5 nM | GI50 (MDA-MB-468 breast): 154 nM | TGI (MDA-MB-468 breast): 381 nM
